Measurements published in patent publication US10202361B2, “Pyridazinones as herbicides” (E I DU PONT DE NEMOURS AND COMPANY, priority 2014, dated 2019).

How the values were obtained:
Assay in all cases: Test D pre-/postemergence controlled growth environment herbicide test
Format in all cases: in vivo
Conditions in all cases: scale 0 to 100
[1] = test system: field violet (Viola arvensis)
In short: (§1)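 Preemergence: seeds sown in silt loam soil and sprayed with test chemicals in a non-phytotoxic solvent mixture containing surfactant. Postemergence: plants grown in peat/vermiculite planting medium and sprayed at 2 to 18 cm (1- to 4-leaf stage). Visual rating versus controls after 14 to 21 d, 0 (no effect) to 100 (complete control).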

[2] = test system: canarygrass (Phalaris minor)
In short: as §1

[3] = test system: oat, wild (wild oat, Avena fatua)
In short: as §1

[4] = test system: deadnettle (henbit deadnettle, Lamium amplexicaule)
In short: as §1

[5] = test system: oilseed rape (Brassica napus)
In short: as §1

[6] = test system: ryegrass, Italian (Italian ryegrass, Lolium multiflorum)
In short: as §1

[7] = test system: barley, winter (winter barley, Hordeum vulgare)
In short: as §1

kochia (Kochia scoparia) = test system: kochia (Kochia scoparia)
In short: as §1

[8] = test system: foxtail, green (green foxtail, Setaria viridis)
In short: as §1

[9] = test system: downy bromegrass (Bromus tectorum)
In short: as §1

[10] = test system: barley, spring (spring barley, Hordeum vulgare)
In short: as §1

In the case of `Cc1cc(=O)n(-c2ccc(F)cc2)nc1Cc1ccnc(C(F)(F)F)c1` [Compound 1, 2-(4-fluorophenyl)-5-methyl-6-[[2-(trifluoromethyl)-4-pyridinyl]methyl]-3(2H)-pyridazinone], the Plant response rating ([1]; Postemergence, 31 g ai/ha) is reported as 20, the Plant response rating ([1]; Postemergence, 62 g ai/ha) is reported as 50 and the Plant response rating ([1]; Postemergence, 125 g ai/ha) is reported as 75. It also gave a Plant response rating ([1]; Postemergence, 250 g ai/ha) of 80, a Plant response rating ([1]; Postemergence, 500 g ai/ha) of 90 and a Plant response rating ([1]; Preemergence, 31 g ai/ha) of 60. For the same compound, the Plant response rating ([1]; Preemergence, 62 g ai/ha) was 80, the Plant response rating ([1]; Preemergence, 125 g ai/ha) was 90 and the Plant response rating ([1]; Preemergence, 250 g ai/ha) was 98. For the same compound, the Plant response rating ([1]; Preemergence, 500 g ai/ha) was 100, the Plant response rating ([2]; Postemergence, 31 g ai/ha) was 5 and the Plant response rating ([2]; Postemergence, 62 g ai/ha) was 10. For the same compound, the Plant response rating ([2]; Postemergence, 125 g ai/ha) was 15, the Plant response rating ([2]; Postemergence, 250 g ai/ha) was 20 and the Plant response rating ([2]; Postemergence, 500 g ai/ha) was 20. The Plant response rating ([2]; Preemergence, 31 g ai/ha) was 0, the Plant response rating ([2]; Preemergence, 62 g ai/ha) was 0 and the Plant response rating ([2]; Preemergence, 125 g ai/ha) was 5. For the same compound, the Plant response rating ([2]; Preemergence, 250 g ai/ha) was 15, the Plant response rating ([2]; Preemergence, 500 g ai/ha) was 30 and the Plant response rating ([3]; Postemergence, 31 g ai/ha) was 10. It also gave a Plant response rating ([3]; Postemergence, 62 g ai/ha) of 10, a Plant response rating ([3]; Postemergence, 125 g ai/ha) of 10 and a Plant response rating ([3]; Postemergence, 250 g ai/ha) of 10. The Plant response rating ([3]; Postemergence, 500 g ai/ha) was 10, the Plant response rating ([3]; Preemergence, 62 g ai/ha) was 0 and the Plant response rating ([3]; Preemergence, 125 g ai/ha) was 15. For the same compound, the Plant response rating ([3]; Preemergence, 250 g ai/ha) was 35, the Plant response rating ([3]; Preemergence, 500 g ai/ha) was 80 and the Plant response rating ([4]; Postemergence, 31 g ai/ha) was 10. The Plant response rating ([4]; Postemergence, 62 g ai/ha) was 25, the Plant response rating ([4]; Postemergence, 125 g ai/ha) was 35 and the Plant response rating ([4]; Postemergence, 250 g ai/ha) was 50. It also gave a Plant response rating ([4]; Postemergence, 500 g ai/ha) of 75, a Plant response rating ([4]; Preemergence, 31 g ai/ha) of 20 and a Plant response rating ([4]; Preemergence, 62 g ai/ha) of 40. The Plant response rating ([4]; Preemergence, 125 g ai/ha) was 100, the Plant response rating ([4]; Preemergence, 250 g ai/ha) was 100 and the Plant response rating ([4]; Preemergence, 500 g ai/ha) was 100. For the same compound, the Plant response rating ([5]; Postemergence, 31 g ai/ha) was 35, the Plant response rating ([5]; Postemergence, 62 g ai/ha) was 40 and the Plant response rating ([5]; Postemergence, 125 g ai/ha) was 50. The Plant response rating ([5]; Postemergence, 250 g ai/ha) was 75, the Plant response rating ([5]; Postemergence, 500 g ai/ha) was 80 and the Plant response rating ([5]; Preemergence, 31 g ai/ha) was 30. For the same compound, the Plant response rating ([5]; Preemergence, 62 g ai/ha) was 30, the Plant response rating ([5]; Preemergence, 125 g ai/ha) was 40 and the Plant response rating ([5]; Preemergence, 250 g ai/ha) was 75. For the same compound, the Plant response rating ([5]; Preemergence, 500 g ai/ha) was 98, the Plant response rating ([6]; Postemergence, 31 g ai/ha) was 0 and the Plant response rating ([6]; Postemergence, 62 g ai/ha) was 0. The Plant response rating ([6]; Postemergence, 125 g ai/ha) was 5, the Plant response rating ([6]; Postemergence, 250 g ai/ha) was 10 and the Plant response rating ([6]; Postemergence, 500 g ai/ha) was 10. The Plant response rating ([6]; Preemergence, 31 g ai/ha) was 0, the Plant response rating ([6]; Preemergence, 62 g ai/ha) was 0 and the Plant response rating ([6]; Preemergence, 125 g ai/ha) was 10. For the same compound, the Plant response rating ([6]; Preemergence, 250 g ai/ha) was 20, the Plant response rating ([6]; Preemergence, 500 g ai/ha) was 60 and the Plant response rating ([7]; Postemergence, 31 g ai/ha) was 0. The Plant response rating ([7]; Postemergence, 62 g ai/ha) was 0, the Plant response rating ([7]; Postemergence, 125 g ai/ha) was 0 and the Plant response rating ([7]; Postemergence, 250 g ai/ha) was 10. For the same compound, the Plant response rating ([7]; Postemergence, 500 g ai/ha) was 15, the Plant response rating ([7]; Preemergence, 31 g ai/ha) was 0 and the Plant response rating ([7]; Preemergence, 62 g ai/ha) was 5. For the same compound, the Plant response rating ([7]; Preemergence, 125 g ai/ha) was 5, the Plant response rating ([7]; Preemergence, 250 g ai/ha) was 40 and the Plant response rating ([7]; Preemergence, 500 g ai/ha) was 60. The Plant response rating (kochia (Kochia scoparia); Postemergence, 31 g ai/ha) was 15, the Plant response rating (kochia (Kochia scoparia); Postemergence, 62 g ai/ha) was 20 and the Plant response rating (kochia (Kochia scoparia); Postemergence, 125 g ai/ha) was 30. For the same compound, the Plant response rating (kochia (Kochia scoparia); Postemergence, 250 g ai/ha) was 50, the Plant response rating (kochia (Kochia scoparia); Postemergence, 500 g ai/ha) was 70 and the Plant response rating (kochia (Kochia scoparia); Preemergence, 31 g ai/ha) was 70. For the same compound, the Plant response rating (kochia (Kochia scoparia); Preemergence, 125 g ai/ha) was 80, the Plant response rating (kochia (Kochia scoparia); Preemergence, 250 g ai/ha) was 100 and the Plant response rating (kochia (Kochia scoparia); Preemergence, 500 g ai/ha) was 100. It also gave a Plant response rating ([8]; Postemergence, 31 g ai/ha) of 0, a Plant response rating ([8]; Postemergence, 62 g ai/ha) of 0 and a Plant response rating ([8]; Postemergence, 125 g ai/ha) of 0. The Plant response rating ([8]; Postemergence, 250 g ai/ha) was 20, the Plant response rating ([8]; Postemergence, 500 g ai/ha) was 70 and the Plant response rating ([8]; Preemergence, 31 g ai/ha) was 0. It also gave a Plant response rating ([8]; Preemergence, 62 g ai/ha) of 60, a Plant response rating ([8]; Preemergence, 125 g ai/ha) of 100 and a Plant response rating ([8]; Preemergence, 250 g ai/ha) of 100. For the same compound, the Plant response rating ([8]; Preemergence, 500 g ai/ha) was 100, the Plant response rating ([9]; Postemergence, 31 g ai/ha) was 0 and the Plant response rating ([9]; Postemergence, 62 g ai/ha) was 0. For the same compound, the Plant response rating ([9]; Postemergence, 125 g ai/ha) was 10, the Plant response rating ([9]; Postemergence, 250 g ai/ha) was 15 and the Plant response rating ([9]; Postemergence, 500 g ai/ha) was 25. For the same compound, the Plant response rating ([9]; Preemergence, 31 g ai/ha) was 0, the Plant response rating ([9]; Preemergence, 62 g ai/ha) was 0 and the Plant response rating ([9]; Preemergence, 125 g ai/ha) was 20. For the same compound, the Plant response rating ([9]; Preemergence, 250 g ai/ha) was 25, the Plant response rating ([9]; Preemergence, 500 g ai/ha) was 25 and the Plant response rating ([10]; Postemergence, 31 g ai/ha) was 0. For the same compound, the Plant response rating ([10]; Postemergence, 62 g ai/ha) was 0, the Plant response rating ([10]; Postemergence, 125 g ai/ha) was 5 and the Plant response rating ([10]; Postemergence, 250 g ai/ha) was 10. The Plant response rating ([10]; Postemergence, 500 g ai/ha) was 10, the Plant response rating ([10]; Preemergence, 31 g ai/ha) was 0 and the Plant response rating ([10]; Preemergence, 62 g ai/ha) was 5. It also gave a Plant response rating ([10]; Preemergence, 125 g ai/ha) of 5, a Plant response rating ([10]; Preemergence, 250 g ai/ha) of 30 and a Plant response rating ([10]; Preemergence, 500 g ai/ha) of 70.
